Experiments:
Karpas-299 cells [1] = test: Cellular toxicity test (2), CellTiter-Glo; assay type: cell-based, human; conditions: for Cell remaining rate (%): 0.25 μM solution added 50 μL per well, 4 days, relative to addition of no compound; for cellular toxicity (in words): summary of Test Example 2
Method: Karpas-299 cells (European Collection of Authenticated Cell Cultures, hereinafter, ECACC), which are CD30 antigen-expressing cell lines and human lymphoma cell lines, were cultured in RPMI 1640 (GIBCO) containing 10% fetal bovine serum (MP Biomedicals) (hereinafter, referred to as “culture medium A” in this test). Karpas-299 cells were prepared to be 2×10^6 cells/mL in culture medium A, and were added to a 96 well microplate for cell culturing in an amount of 50 μL for each well. Each compounds prepared to be in a concentration of 0.25 μM with culture medium A was added to the microplate in an amount of 50 μL for each well, and culture was carried out at 37° C. under 5% CO2 for 4 days. After culturing, the microplate was taken out from the incubator, and was left at rest at room temperature for 10 minutes. To each well, 50 μL of CellTiter-Glo Luminescent Cell Viability Assay (Promega) was added, and the resultant mixture was stirred. This mixture was incubated at a dark place for 20 minutes, and luminescence was measured by using a microplate luminometer, thereby determining the percentage of the number of cells remaining after treatment with each compound to the number of cells remaining after treatment with addition of no compound.

porcine tubulin = target: T1, porcine tubulin (Sus scrofa, UniProt P02550+P02554); test: Activity for inhibiting microtubule polymerization using porcine tubulins; assay type: biochemical; conditions: for Microtubule polymerization rate (%): at 9.1 μM, 60 minutes after assay initiation, absorbance at 340 nm, 37° C.; for activity for inhibiting microtubule polymerization (in words): summary of Test Example 3
T1 construct: purchased Cytoskeleton Inc. BK006P
Method: Using a tubulin polymerization inhibition assay kit (catalog number: BK006P) purchased from Cytoskeleton Inc., the polymerization inhibitory activity of compounds of Examples was evaluated in accordance with the protocol appended to the kit. To a 96 well microplate, 80 mM PIPES pH 6.9, 2 mM MgCl, 0.5 mM EGTA and 5% DMSO buffered solution of the compound to be evaluated was added in an amount of 10 μL for each well, and to these wells, 3 mg/mL porcine tubulin 80 mM PIPES pH 6.9, 2 mM MgCl, 0.5 mM EGTA, 1 mM GTP and 10.2% glycerol solution was added in an amount of 100 μL for each well. In order to examine a state in which tubulins polymerize over time, the absorbance at 340 nm was measured at 37° C., using a microplate reader. As the polymerization of tubulins progresses, the absorbance at 340 nm rises.
The tubulin polymerization inhibitory activity was evaluated based on the proportion of polymerized tubulins 60 minutes after the assay initiation. Specifically, the microtubule polymerization rate (%) was calculated by dividing the absorbance of tubulins that had polymerized at wells to which the compound had been added by the absorbance of tubulins that had polymerized at wells to which the compound had not been added, and multiplying the obtained value by 100.

Karpas-299 cells [2] = test: Cellular toxicity test (1), CellTiter-Glo; assay type: cell-based, human; conditions: 16 μg/mL solution added 50 μL per well, 4 days, relative to addition of no compound
Method: Karpas-299 cells were prepared to be 2×10^6 cells/mL in culture medium A, and were added to a 96 well microplate for cell culturing in an amount of 50 μL for each well. […] After culturing, the microplate was taken out from the incubator, and was left at rest at room temperature for 10 minutes. To each well, 50 μL of CellTiter-Glo Luminescent Cell Viability Assay (Promega) was added, and the resultant mixture was stirred.

T1 sequence (P02550 whole entry): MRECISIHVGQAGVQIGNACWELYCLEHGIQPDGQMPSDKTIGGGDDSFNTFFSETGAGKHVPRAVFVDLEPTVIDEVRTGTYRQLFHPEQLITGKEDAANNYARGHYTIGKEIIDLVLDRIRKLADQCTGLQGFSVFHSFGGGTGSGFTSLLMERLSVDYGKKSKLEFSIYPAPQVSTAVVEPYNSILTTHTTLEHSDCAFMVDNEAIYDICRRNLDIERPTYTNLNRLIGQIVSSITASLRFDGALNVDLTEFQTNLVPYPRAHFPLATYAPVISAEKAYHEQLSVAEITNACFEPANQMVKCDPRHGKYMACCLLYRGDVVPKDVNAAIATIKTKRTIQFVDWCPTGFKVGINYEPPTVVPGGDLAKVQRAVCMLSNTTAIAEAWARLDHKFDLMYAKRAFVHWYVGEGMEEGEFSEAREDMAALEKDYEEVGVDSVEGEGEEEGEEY
T1 sequence (P02554 whole entry): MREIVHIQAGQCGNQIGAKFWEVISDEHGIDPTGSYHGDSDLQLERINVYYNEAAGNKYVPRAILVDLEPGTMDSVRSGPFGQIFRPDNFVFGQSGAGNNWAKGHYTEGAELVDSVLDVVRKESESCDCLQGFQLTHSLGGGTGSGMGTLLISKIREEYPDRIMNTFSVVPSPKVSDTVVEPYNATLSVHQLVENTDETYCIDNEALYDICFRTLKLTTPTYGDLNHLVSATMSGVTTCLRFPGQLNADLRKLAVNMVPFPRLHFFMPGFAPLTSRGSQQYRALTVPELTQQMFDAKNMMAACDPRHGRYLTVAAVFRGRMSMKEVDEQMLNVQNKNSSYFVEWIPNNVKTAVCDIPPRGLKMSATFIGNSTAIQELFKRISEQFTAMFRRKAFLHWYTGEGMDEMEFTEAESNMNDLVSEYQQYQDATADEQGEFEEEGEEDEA

## CN[C@H](C(=O)N[C@H](C(=O)N(C)[C@H](/C=C(\C)C(=O)NCCCCNC(=O)CCCCCN1C(=O)CC(SC[C@H](N)C(=O)O)C1=O)C(C)C)C(C)(C)C)C(C)(C)c1cn(C)c2ccccc12 (stereo partly drawn) [Comparative Example compound, reference compound]
Karpas-299 cells [1]
  Cell remaining rate (%): 18.1%
  cellular toxicity (in words): strong cellular toxicity
Porcine tubulin
  Microtubule polymerization rate (%): 0%
  activity for inhibiting microtubule polymerization (in words): comparable activities for inhibiting microtubule polymerization

## CN[C@H](C(=O)N[C@H](C(=O)N(C)[C@H](/C=C(\C)C(=O)N[C@H](CCC(=O)NCCCC[C@H](N)C(=O)O)C(=O)O)C(C)C)C(C)(C)C)C(C)(C)c1ccccc1 [Metabolite of Example ADC1]
Karpas-299 cells [1]
  Cell remaining rate (%): 100%
  cellular toxicity (in words): weak cytotoxic activity
Porcine tubulin
  Microtubule polymerization rate (%): 1.7%
  activity for inhibiting microtubule polymerization (in words): comparable activities for inhibiting microtubule polymerization

## Brentuximab
Karpas-299 cells [2]
  Cell remaining rate (%): 71.5%

From patent US12178879B2, “Hemiasterlin derivative and antibody-drug conjugate thereof” (priority 2019, dated 2024)
